Experimental data as given in patent US9458095B2, “Oligo-benzamide compounds and their use in treating cancers” (The Board of Regents of the University of Texas System, priority 2011, dated 2016).

What was measured:
Type in all cases: cell-based
[1] = target: T1, ARwt (Homo sapiens, UniProt P10275); assay: ARE-luciferase reporter in PC-3 cells expressing ARwt; conditions: 1 nM DHT, 100 nM peptidomimetic, 48 h
T1 construct: expressed in transfected cells; host or cells: PC-3 cells (A3); M12 cells (A8)
T1 sequence (P10275 1-920): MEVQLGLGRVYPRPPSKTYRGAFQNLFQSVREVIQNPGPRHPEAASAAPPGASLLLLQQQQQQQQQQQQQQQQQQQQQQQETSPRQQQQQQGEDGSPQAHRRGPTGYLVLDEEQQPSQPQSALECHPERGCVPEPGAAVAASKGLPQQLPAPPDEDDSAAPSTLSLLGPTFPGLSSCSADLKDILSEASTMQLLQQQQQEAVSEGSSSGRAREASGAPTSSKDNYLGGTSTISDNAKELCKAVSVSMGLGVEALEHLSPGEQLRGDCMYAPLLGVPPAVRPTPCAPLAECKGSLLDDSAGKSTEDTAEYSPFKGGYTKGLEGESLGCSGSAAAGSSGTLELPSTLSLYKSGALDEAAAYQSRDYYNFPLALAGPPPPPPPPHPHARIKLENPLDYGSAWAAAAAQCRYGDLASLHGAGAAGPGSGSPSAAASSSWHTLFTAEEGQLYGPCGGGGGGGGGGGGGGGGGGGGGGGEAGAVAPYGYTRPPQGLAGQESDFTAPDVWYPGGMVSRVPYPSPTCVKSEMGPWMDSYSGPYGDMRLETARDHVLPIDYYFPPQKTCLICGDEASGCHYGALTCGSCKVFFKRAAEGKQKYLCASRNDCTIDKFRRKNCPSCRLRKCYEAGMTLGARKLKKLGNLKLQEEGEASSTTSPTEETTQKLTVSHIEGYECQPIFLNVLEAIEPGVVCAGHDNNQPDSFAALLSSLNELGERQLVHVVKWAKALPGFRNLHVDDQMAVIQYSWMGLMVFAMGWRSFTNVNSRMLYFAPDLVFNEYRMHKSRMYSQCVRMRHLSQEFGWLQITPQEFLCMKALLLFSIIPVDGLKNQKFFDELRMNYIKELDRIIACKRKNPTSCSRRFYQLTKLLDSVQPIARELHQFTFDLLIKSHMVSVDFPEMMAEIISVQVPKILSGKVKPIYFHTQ
Description: FIGS. 2A-D. Oligobenzamide control of PC3 cell proliferation. (FIG. 2A) Structure of AR deletion mutants with numbered exons (FIG. 2B) Effect of D2 and T6 on basal (AI) and AD transcription. PC-3 cells were transiently transfected with ARE-luciferase along with plasmids expressing ARwt (FIG. 2B), ARv7 (FIG. 2C) or ARΔ1 (FIG. 2D). Cells were maintained for 48 h either without (EtOH) or with (1 nM DHT) and in the presence of 100 nM of peptidomimetic or volume equivalent of vehicle (DMSO) control. Luciferase assay results are shown. Data is normalized to the basal level of expression with AR wt in PC3 cells.
Since the WxxLF motif is also present in the truncated forms of the androgen receptor, the inventors then evaluated the ability of the peptidomimetics to block ARv7-driven transcription from a minimal ARE luciferase reporter. […] These findings were confirmed with a synthetic AR with point mutations in the WxxLF motif (data not shown).

[2] = target: T2, AR567 (Homo sapiens, UniProt P10275); assay: ARE-luciferase reporter in PC-3 cells expressing AR567; conditions: 100 nM peptidomimetic, 48 h
T2 construct: expressed in transfected cells; host or cells: PC-3 cells
T2 sequence (P10275 with tags, fused parts or gaps limits assumed): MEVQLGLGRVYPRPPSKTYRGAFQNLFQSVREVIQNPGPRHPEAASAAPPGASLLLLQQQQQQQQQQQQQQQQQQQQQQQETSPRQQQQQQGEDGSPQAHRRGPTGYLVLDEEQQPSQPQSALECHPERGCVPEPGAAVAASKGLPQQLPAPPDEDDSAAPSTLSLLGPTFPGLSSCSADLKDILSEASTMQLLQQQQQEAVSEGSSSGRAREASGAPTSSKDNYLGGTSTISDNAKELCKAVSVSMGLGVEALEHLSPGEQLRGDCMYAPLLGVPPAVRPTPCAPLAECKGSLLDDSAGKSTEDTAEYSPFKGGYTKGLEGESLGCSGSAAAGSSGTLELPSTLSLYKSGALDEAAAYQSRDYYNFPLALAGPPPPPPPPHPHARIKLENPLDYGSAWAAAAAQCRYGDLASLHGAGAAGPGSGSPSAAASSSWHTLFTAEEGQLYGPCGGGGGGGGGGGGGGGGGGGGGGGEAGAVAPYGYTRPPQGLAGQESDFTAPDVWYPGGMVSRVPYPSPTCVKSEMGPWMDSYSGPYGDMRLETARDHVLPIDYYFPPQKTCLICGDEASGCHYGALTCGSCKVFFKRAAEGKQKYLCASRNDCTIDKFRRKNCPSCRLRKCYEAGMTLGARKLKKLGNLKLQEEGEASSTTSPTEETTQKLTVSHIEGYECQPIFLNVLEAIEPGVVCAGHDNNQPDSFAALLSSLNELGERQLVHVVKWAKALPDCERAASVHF
Description: FIGS. 3A-B. Effect of T6 on basal transcription driven by splice variants. PC-3 cells were transiently transfected with ARE-luciferase along with plasmids expressing ARv7 (FIG. 3A) or AR567 (FIG. 3B). Cells were maintained for 48 h either without (EtOH) or with (1 nM DHT) and in the presence of 100 nM of peptidomimetic or volume equivalent of vehicle (DMSO) control. Luciferase assay results are shown. Data is normalized to the basal level of expression with AR wt in PC3 cells.

[3] = target: T3, wtAR (Homo sapiens, UniProt P10275); assay: Rat probasin-luciferase reporter in M12 cells with ARwt; conditions: 100 nM peptidomimetic, 48 h
T3 construct: expressed in transfected cells; host or cells: PC-3 cells (A3); M12 cells (A8)
T3 sequence (P10275 1-920): T1 sequence (P10275 1-920)
Description: FIG. 5. Effect of T6 on basal level of ARE expression in M12 cells. M12 cells were transiently transfected with the rat probasin-luciferase reporter and either ARwt or ARv7. Cells were maintained for 48 h without (EtOH) and in the presence of 100 nM of peptidomimetic or volume equivalent of vehicle (DMSO) control or 10 μM of MDV3100. Luciferase assay results are shown.

[4] = system: ARv7 regulated genes; assay: Q-PCR of ARv7 regulated genes; conditions: data not shown
Description: Finally, confirmation of the role of T6 in modulating ARv7 driven transcription was obtained by evaluation of the gene expression of ARv7 regulated genes.

Ligand dependent transcription mediated by ARwt [1]: able to suppress | transcription driven by AR567 splice variant [2]: decreases | expression of rat probasin reporter in M12 cells driven by wtAR [3]: able to independently knock down
SMILES: CC(C)COc1cc(C(N)=O)ccc1NC(=O)c1ccc(NC(=O)c2ccc([N+](=O)[O-])c(OCCc3ccc4ccccc4c3)c2)c(OCC(C)C)c1 [T6]
expression of a panel of ARv7 regulated genes (Q-PCR) [4]: able to abrogate
